Measurements published in publication PMC6072853 (Frontiers in Pharmacology, 2018).

Molecular target: T1, human androgenic receptor (Homo sapiens, UniProt P10275)
T1 construct: host or cells: Saccharomyces cerevisiae
T1 sequence (P10275 1-920): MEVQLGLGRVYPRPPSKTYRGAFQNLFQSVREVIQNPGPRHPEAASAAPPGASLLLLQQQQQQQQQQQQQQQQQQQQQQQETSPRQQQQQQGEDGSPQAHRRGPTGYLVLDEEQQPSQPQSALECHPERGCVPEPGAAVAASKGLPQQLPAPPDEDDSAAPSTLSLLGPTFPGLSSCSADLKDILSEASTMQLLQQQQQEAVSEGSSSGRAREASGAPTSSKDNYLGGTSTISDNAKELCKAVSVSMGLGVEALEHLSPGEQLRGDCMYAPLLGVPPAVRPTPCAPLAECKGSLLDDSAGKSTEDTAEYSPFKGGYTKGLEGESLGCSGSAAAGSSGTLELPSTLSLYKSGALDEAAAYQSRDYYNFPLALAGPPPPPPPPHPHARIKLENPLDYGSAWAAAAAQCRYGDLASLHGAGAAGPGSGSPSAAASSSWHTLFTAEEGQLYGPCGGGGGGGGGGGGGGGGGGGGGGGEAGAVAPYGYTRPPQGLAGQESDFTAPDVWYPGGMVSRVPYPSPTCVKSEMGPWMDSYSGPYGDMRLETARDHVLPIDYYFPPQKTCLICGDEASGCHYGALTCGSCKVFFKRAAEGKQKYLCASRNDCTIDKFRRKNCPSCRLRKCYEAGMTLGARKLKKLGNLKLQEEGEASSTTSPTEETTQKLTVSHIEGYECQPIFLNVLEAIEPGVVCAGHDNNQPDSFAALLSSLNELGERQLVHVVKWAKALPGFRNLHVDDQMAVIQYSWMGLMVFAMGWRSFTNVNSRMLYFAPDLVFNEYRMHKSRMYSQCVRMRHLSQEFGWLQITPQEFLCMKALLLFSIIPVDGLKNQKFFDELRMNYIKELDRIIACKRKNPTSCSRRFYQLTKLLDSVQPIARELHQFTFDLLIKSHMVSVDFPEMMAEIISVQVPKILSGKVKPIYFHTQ
Assay: Yeast-based androgenic reporter assay, antagonistic
Assay type: cell-based
Settings: in the presence of 5α-dihydrotestosterone
Experimental: An endocrine bioassay kit (Xenometrix AG, Allschwil, Switzerland) was used to test for a potential residual androgenic activity of the selected agents. Genetically modified yeast cells (Saccharomyces cerevisiae) containing the human androgenic receptor gene integrated into a yeast chromosome, as well as an expression plasmid with the sequences of both the androgen responsive element and a lacZ reporter gene were cultured in humidified air at 31°C with agitation for 2 days. The appropriate concentrations of the test compounds and a CPRG substrate solution (chlorophenol red-β-D-galactopyranoside) for β-galactosidase were added into a 96-well microplate according to the instructions of the manufacturer. Androgen agonistic and antagonistic properties of the test compounds were determined by a colorimetric assay. For the antagonistic measurements the medium was supplemented with 5α-dihydrotestosterone (DHT). Once the reporter gene is expressed, β-galactosidase is secreted into the medium, and converts the yellow CPRG substrate into a red product, which can be quantified at 570 nm. Quantities of this red product correlate with the liberation of β-galactosidase, which is increased when an agonistic effect is present, while it is decreased when the test compound exerts an antagonistic effect. […]

For `C[C@]12CC[C@H]3[C@@H](CCC4=CC(=O)CC[C@@H]43)[C@@H]1CC[C@H]2Cl` [Compound 3], the androgen antagonistic activity was “no antagonistic activity”.
